Tests used:
in vivo [1] = conditions: rat, whole blood
in vivo [2] = conditions: rat, brain/blood, 30 mg/kg

Row | Compound | clearance (in vivo [1]) | Kp (in vivo [2])
1 | Cc1nnc(N2CCCC2)c2nn(-c3ccc(OCC(F)(F)F)cc3)c(C)c12 | 49 mL/min/kg | 
2 | COC1CN(c2nnc(C)c3c(C)n(-c4ccc(Cl)cc4OC(F)(F)F)nc23)C1 | 52 mL/min/kg | 0.94

From ChEMBL document CHEMBL1800009, “Pyrazolopyridazine alpha-2-delta-1 ligands for the treatment of neuropathic pain” (Bioorg Med Chem Lett, 2010)
